Our source for the IC50 values is patent publication US5817757A, “Inhibitors of peptide binding to MHO class II proteins” (Merck & Co., Inc., priority 1996, dated 1998).

Like-named read-outs stand apart in the source and are kept apart here.

The assay deals with T1, DR1Dw1 (Homo sapiens, UniProt P01903+P01911, A100R/D57E/F55L/F60I/F76Y/I96L/L162R/M171V/P40L/Q125E/R42F/V115G/Y59C).
T1 construct: these are Drosophila transmembrane DR; made in house; host or cells: Drosophila (cells)
Kind of assay: Inhibition of biotinylated RMBP 90-102 peptide binding to MHC class II DR1 (europium-streptavidin capture assay). As to the method: In studies optimizing the assay it was determined that only between 5 to 10% of the DR molecules are capable of binding added peptide. Therefore, the effective concentration of DR1Dw1 and DR4Dw4 was approximately 0.125 and 1.0 nM, respectively. […] The DR-peptide complexes (50 μL) are transferred to wells of a 96-well EIA plate precoated with LB3.1, the monoclonal antibody which recognizes the DR alleles of MHC Class II, and blocked with PBS with fetal calf serum (FCS). An additional 50 μL of 50 mM Tris, pH 7.0, containing 0.75% octyl glucoside is added to each well and the mixture incubated overnight at 4° C. Excess peptide is removed by washing with PBS containing 0.05% Tween 20 (Polyoxyethylene sorbitan monolaurate) and 0.01% NaN3. Europium-labeled streptavidin (Wallac Inc.) is added and incubated overnight. After washing, complexes are measured by the addition of Enhance™ buffer, the tradename for 0.1M acetate phthalate buffer, pH 3.2, containing 0.1% Triton X-100, tradename for polyoxyethylene ethers and other surface active compounds of Union Carbide Chemicals and Plastics Co., Inc. (particularly, a non-ionic surfactant for recovery of membrane components under non-denaturing conditions) 15 μM 2-naphthoyltrifluoroacetone, and 50 μM tri-N-octylphosphine oxide, which buffer releases the chelated europium from streptavidin and forms a highly fluorescent micellar solution. The resultant fluorescence is measured using a fluorescent plate reader (e.g., DELPHIA, Wallac, Inc.). The data are analyzed using a four-parameter logistical curve […] program (e.g., SigmaPlot) that calculates the concentration of biotinylated peptide giving a half-maximal signal (ED50).
The inhibition assay format is identical to the procedure described above with the exception that the unlabeled antagonist is serially diluted and incubated with constant concentrations of biotinylated RMBP 90-102 (0.3 nM for DR1Dw1 or 0.9 nM for DR4Dw4) and the MHC class II proteins. The concentration of unlabeled compound that prevents 50% of the labeled peptide from binding is the IC50 value. The concentration of the biotinylated RMBP 90-102 in each assay is experimentally determined to be […] one-sixth of its measured ED50 to assure the inhibition was primarily measuring the binding characteristics of the competitor.
In particular, a protocol for carrying out the inhibition assay is given below.
Add 115 μL of 5μg/mL LB3.1 in 50 mM Tris HCl pH 9.6/azide to each well of a Costar EIA plate. Incubate the plate overnight at 4° C.
Wash the plate 4 times with water/0.05% Tween-20/azide. Add 200 μL of PBS /5% FCS/azide for 1 hour at 4° C. to block the plate. The plate may be held at this point for later use or used immediately.
Flip out the block. It is not necessary to wash the plate. At 50 μL of load buffer (50 mM Tris HCl, pH 8.0 0.75% octylglucoside). Add to this volume 50 μL of the reaction mix from day 2, step 3 below.
(1) Add the following to a polypropylene round bottom 96-well plate such as a Costar #3794:
(A) Diluent (Ca Mg free PBS adjusted to pH 6.5 with 0.1 M KH2 PO4/0.75% octylglucoside/azide).81 μL
(B) Competitor at 16.6 times the final concentration in diluent or diluent alone. 9 μL
(C) biotinylated rat myelin basic protein (BRMBP) 90-102; 1.5 nM for DR1 or 4.5 nM for DR4 (These are 5× stocks of final concentrations of 0.3 nM/DR1 or 0.9 nM/DR4) 30 μL
(D) 6.25 nM DR1Dw1 or 50 nM DR4Dw4 (these are Drosophila transmembrane DR) (This is a 5× stock of the final concentration of 1.25 or 10 nM.) 30 μL Add the DR last and mix well at this time 150 μL
(2) Incubate at 37° C. for 20 min and 5 hours.
(3) Add 50 μL of this reaction mixture to one well of the blocked antibody plate from day 2 above.
(4) Incubate overnight at 4° C. to capture the DR-peptide complexes.
(6) Add 125 μL of 100 ng/mL europium streptavidin (Wallac Inc.) in Ca Mg free PBS with 3.5 mg DTPA, 1.6 mL of 30% BSA/500 mL to each well.
(7) Incubate 2 to 4 hours at 4° C. […]

Setting [1] is: incubation at 37° C. for 20 min, 0.3 nM biotinylated RMBP 90-102, 1.25 nM DR1Dw1, pH 6.5, read-out: IC50 /μM @ 20'.
The mark [2] stands for this setting: incubation at 37° C. for 5 hours, 0.3 nM biotinylated RMBP 90-102, 1.25 nM DR1Dw1, pH 6.5, read-out: IC50 /μM @ 5h.

Consider `CCCC(NC(=O)C(CCCCN)NCCCC1CCCCC1)C(=O)NN(CC(C)C)C(=O)OCC` (stereo not drawn) [Example 48, α-[3 -Cyclohexylpropyl]-Lys-Nva-α-AzaLeu-OEt], for which the IC50 was 0.15 µM under setting [1] and 0.68 µM under setting [2].
The corresponding values for `CCCC(NC(=O)C(C)(C)NCCCC1CCCCC1)C(=O)NC(CC(C)C)C(N)=O` (stereo not drawn) [Example 2, N-α((2-Methyl-2-((3-cyclohexyl)propylamino))-propanoyl)-Nva-Leu-NH2] are 0.26 µM and 1.59 µM.
The corresponding values for `CCCC(NC(=O)C(CCCCN)NC(=O)CC(C)c1ccccc1)C(=O)NC(CC(C)C)C(N)=O` (stereo not drawn) [Example 34, α-[3R-methyl-3-phenylpropionyl]-Lys-Nva-Leu-NH2] are 0.16 µM and 1.25 µM.
Regarding `CCCC(NC(=O)C(Cc1cccnc1)NCCCC1CCCCC1)C(=O)NC1CCCCNC1=O` (stereo not shown) [Example 5], the IC50 is 0.21 µM under setting [1] and 1.43 µM under setting [2].
The corresponding values for `CCCCN(NC(=O)C(CCC)NC(=O)C(CCCCN)NCC1CCc2ccccc2C1)C(=O)OCC` (stereo not drawn) [Example 52, α-[1,2,3,4-tetrahydronaphthyl-2-methyl]-Lys-Nva-α-AzaNle-OEt] are 0.03 µM and 0.14 µM.
Regarding `CCCCN(NC(=O)C(CCC)NC(=O)C(CCCCN)NCCCC1CCCCC1)C(=O)OCC` (stereo not drawn) [Example 50, α-[3-Cyclohexylpropyl]-Lys-Nva-α-AzaNle-OEt], the IC50 under setting [1] was 0.046 µM and the IC50 under setting [2] was 0.26 µM.
With “α-[(1R,2S)-1-Cyclohexylcyclopropyl-1-carbonyl]-Lys-Nva-Leu-NH2 [Example 22]”, the IC50 stood at 0.012 µM under setting [1] and 1.08 µM under setting [2].
The corresponding values for `CCC[C@H](NC(=O)[C@H](CCCCN)NC(=O)C=Cc1ccccc1C)C(=O)N[C@@H](CC(C)C)C(N)=O` [Example 13, α-[2-methylcinnamoyl]-Lys-Nva-Leu-NH2] are 0.25 µM and 1.7 µM.
The corresponding values for `CCCC(NC(=O)C(CCCCN)NC(=O)CC(C)C1CCCCC1)C(=O)NC(CC(C)C)C(N)=O` (stereo not drawn) [Example 36, α-[3R-methyl-3-cyclohexylpropionyl]-Lys-Nva-Leu-NH2] are 0.04 µM and 0.187 µM.
As to “α-[3-Phenylpropyl]-Lys-Nva-Leu-NH2 [Example 38]”, the IC50 was found to be 0.16 µM under setting [1] and 1.8 µM under setting [2].
Taken in the same sequence, the figures for `CCCC(NC(=O)C(CCCCN)NCCCC1CCCCC1)C(=O)NC(CC(C)C)C(N)=O` (stereo not drawn) [Example 40, α-[3-Cyclohexylpropyl]-Lys-Nva-Leu-NH2] were 0.0052 µM and 0.059 µM.
